Measured values as given in paper PMC7206119, “RIP1 inhibition blocks inflammatory diseases but not tumor growth or metastases” (Cell Death and Differentiation, 2019).

Experiments:
Experiment in all cases: biochemical
Set-up in all cases: DiscoverX kinase panel, active-site competition binding (KINOMEscan type), percent of control at one concentration
Details in all cases: competition binding, percent of control
[1] = target: RIOK2 (Homo sapiens, UniProt Q9BVS4)
[2] = target: BRAF(V600E) (Homo sapiens, UniProt P15056, V600E)
Chain of BRAF(V600E) (P15056 whole entry V600E): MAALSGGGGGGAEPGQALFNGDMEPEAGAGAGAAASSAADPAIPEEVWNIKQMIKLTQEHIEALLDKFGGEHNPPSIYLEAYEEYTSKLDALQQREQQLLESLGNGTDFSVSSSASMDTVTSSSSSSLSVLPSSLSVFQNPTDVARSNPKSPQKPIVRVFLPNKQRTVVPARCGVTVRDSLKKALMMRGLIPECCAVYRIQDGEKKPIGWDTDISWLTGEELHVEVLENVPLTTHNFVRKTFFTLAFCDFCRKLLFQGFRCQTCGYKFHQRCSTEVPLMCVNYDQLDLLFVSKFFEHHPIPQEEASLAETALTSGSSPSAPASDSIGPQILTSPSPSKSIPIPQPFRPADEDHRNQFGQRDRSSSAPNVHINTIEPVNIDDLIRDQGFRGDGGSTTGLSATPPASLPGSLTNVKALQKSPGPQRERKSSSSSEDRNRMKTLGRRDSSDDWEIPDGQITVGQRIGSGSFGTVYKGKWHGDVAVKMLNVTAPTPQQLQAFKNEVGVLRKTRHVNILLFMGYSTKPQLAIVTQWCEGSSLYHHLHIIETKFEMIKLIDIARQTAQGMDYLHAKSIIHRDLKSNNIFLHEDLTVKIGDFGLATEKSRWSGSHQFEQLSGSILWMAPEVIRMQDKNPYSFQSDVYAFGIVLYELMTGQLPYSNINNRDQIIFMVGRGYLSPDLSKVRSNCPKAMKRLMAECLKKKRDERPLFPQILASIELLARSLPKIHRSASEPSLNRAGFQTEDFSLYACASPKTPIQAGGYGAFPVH

[3] = target: ERBB4 (Homo sapiens, UniProt Q15303)
[4] = target: IRAK3 (Homo sapiens, UniProt Q9Y616)
[5] = target: PIK3CD (Homo sapiens, UniProt O00329)
[6] = target: AURKC (Homo sapiens, UniProt Q9UQB9)
[7] = target: TGFBR2 (Homo sapiens, UniProt P37173)
[8] = target: T1, CDC2L5 (Homo sapiens, UniProt Q14004)
T1 construct: gene CDK13
T1 sequence (Q14004 whole entry): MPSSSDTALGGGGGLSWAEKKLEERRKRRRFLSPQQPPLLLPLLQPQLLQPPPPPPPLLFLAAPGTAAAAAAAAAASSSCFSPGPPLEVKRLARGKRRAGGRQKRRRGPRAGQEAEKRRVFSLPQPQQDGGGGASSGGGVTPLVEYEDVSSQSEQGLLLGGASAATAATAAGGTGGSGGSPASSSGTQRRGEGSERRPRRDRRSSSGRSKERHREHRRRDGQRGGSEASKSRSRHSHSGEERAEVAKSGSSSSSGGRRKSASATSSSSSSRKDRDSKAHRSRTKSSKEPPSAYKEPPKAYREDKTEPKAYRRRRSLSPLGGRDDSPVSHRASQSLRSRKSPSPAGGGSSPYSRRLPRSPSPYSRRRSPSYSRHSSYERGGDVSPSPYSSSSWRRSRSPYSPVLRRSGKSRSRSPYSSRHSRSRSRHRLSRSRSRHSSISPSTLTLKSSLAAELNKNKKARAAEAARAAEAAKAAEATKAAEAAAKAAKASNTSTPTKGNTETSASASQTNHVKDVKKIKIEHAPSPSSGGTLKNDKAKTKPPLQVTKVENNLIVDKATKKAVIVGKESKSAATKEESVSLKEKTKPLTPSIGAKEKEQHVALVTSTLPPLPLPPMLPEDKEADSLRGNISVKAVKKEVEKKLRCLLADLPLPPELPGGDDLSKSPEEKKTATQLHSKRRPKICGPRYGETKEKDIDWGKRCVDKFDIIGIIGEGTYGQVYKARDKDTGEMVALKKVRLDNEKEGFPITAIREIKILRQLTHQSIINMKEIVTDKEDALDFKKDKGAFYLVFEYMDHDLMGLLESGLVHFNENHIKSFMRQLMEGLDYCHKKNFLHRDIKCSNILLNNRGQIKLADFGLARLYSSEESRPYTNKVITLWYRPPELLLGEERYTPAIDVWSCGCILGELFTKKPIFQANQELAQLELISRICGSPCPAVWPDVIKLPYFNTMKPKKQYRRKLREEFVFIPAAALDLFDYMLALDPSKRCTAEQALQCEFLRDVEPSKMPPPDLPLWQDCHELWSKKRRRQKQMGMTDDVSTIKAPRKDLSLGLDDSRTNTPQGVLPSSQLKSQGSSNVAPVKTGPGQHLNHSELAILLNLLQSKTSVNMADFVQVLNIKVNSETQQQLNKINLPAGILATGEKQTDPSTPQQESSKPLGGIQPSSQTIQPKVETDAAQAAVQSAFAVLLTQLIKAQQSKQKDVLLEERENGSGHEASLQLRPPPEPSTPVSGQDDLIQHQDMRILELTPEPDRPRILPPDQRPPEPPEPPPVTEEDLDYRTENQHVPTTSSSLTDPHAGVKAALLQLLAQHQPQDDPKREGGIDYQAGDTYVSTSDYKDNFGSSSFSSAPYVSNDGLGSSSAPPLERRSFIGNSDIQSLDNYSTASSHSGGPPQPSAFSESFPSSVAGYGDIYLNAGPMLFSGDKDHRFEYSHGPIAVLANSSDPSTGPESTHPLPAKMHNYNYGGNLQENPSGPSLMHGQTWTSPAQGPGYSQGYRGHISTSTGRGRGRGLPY

[9] = target: CSNK1A1L (Homo sapiens, UniProt Q8N752)
Chain of CSNK1A1L (Q8N752 whole entry): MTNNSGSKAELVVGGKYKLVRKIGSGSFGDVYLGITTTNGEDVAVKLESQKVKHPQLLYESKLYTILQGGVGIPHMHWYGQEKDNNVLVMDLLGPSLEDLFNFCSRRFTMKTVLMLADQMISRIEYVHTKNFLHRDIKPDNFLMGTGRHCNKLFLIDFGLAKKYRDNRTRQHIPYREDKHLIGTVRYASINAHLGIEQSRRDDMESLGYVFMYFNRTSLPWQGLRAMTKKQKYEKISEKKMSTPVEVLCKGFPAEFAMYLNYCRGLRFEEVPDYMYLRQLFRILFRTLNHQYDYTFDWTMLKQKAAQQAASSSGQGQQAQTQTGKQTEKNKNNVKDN

[10] = target: ZAP70 (Homo sapiens, UniProt P43403)
[11] = target: ROCK2 (Homo sapiens, UniProt O75116)
[12] = target: RIPK4 (Homo sapiens, UniProt P57078)
[13] = target: MKNK2 (Homo sapiens, UniProt Q9HBH9)
Chain of MKNK2 (Q9HBH9 whole entry): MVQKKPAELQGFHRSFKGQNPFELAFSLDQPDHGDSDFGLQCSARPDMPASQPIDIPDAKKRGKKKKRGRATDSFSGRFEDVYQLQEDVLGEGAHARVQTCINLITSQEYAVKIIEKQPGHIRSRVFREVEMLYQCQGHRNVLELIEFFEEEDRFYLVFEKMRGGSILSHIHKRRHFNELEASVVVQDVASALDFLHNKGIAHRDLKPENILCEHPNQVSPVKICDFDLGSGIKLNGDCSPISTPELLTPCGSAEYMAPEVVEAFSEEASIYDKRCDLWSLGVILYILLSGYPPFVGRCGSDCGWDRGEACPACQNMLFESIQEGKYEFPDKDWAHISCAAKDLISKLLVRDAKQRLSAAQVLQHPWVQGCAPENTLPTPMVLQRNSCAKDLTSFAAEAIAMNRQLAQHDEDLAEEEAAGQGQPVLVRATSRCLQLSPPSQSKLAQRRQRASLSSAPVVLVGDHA

[14] = target: ACVRL1 (Homo sapiens, UniProt P37023)
[15] = target: TNNI3K (Homo sapiens, UniProt Q59H18)
Chain of TNNI3K (Q59H18 whole entry): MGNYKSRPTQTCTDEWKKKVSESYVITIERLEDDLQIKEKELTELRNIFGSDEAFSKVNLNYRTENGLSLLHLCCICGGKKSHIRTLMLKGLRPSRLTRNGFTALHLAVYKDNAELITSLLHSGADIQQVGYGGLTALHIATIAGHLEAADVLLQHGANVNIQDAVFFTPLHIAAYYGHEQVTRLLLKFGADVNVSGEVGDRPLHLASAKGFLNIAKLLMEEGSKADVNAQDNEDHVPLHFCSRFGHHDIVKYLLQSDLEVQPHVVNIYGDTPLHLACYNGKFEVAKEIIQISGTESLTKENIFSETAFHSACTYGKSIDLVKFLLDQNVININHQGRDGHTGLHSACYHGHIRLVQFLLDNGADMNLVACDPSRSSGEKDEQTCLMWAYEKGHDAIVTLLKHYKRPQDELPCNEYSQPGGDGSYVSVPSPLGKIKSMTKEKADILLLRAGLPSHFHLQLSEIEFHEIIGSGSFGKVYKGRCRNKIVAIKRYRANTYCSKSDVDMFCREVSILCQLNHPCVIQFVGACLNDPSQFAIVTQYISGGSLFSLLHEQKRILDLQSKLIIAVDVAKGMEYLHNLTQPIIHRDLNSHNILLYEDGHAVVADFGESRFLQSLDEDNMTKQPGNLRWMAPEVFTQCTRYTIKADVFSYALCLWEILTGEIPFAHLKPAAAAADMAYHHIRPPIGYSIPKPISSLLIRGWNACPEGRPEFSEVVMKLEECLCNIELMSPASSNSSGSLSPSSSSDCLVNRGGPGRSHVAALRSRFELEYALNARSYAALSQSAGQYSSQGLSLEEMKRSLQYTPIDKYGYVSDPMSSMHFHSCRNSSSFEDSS

[16] = target: EPHA1 (Homo sapiens, UniProt P21709)
[17] = target: T2, MEK4 (Homo sapiens, UniProt P45985)
T2 construct: gene MAP2K4

[18] = target: T3, ABL1(F317L)-phosphorylated (Homo sapiens, UniProt P00519, F317L)
T3 construct: phosphorylated
T3 sequence (P00519 whole entry F317L): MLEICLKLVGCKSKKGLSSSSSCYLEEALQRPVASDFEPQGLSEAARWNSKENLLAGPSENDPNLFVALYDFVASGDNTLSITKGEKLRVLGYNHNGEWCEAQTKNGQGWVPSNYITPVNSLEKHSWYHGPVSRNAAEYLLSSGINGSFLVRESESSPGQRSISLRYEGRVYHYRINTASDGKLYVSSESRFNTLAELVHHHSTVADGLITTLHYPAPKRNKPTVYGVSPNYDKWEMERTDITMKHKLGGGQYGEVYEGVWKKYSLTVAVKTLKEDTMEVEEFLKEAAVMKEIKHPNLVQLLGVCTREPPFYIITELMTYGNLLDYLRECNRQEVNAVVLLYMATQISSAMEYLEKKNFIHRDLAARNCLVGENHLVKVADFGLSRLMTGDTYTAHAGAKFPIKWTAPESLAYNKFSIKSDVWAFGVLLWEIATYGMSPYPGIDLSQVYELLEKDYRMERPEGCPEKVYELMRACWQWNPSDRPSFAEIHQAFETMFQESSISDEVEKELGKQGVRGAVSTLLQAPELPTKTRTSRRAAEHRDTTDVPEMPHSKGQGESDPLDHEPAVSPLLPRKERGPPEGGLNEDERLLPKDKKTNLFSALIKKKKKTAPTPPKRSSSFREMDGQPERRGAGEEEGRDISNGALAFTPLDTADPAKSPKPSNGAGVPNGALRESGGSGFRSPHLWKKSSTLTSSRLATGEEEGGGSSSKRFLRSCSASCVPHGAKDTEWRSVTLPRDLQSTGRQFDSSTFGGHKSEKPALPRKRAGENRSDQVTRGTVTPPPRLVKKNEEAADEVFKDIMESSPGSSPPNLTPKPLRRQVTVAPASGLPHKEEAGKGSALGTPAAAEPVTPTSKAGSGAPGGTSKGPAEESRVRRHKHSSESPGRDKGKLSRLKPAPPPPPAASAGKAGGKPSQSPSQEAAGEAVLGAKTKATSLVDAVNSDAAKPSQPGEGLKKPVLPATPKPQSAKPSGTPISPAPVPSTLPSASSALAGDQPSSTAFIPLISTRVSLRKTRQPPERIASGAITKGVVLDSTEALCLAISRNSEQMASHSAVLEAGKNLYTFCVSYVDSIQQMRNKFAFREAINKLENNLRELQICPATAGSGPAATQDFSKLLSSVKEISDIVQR

[19] = target: PIKFYVE (Homo sapiens, UniProt Q9Y2I7)
[20] = target: TAOK2 (Homo sapiens, UniProt Q9UL54)
[21] = target: FRK (Homo sapiens, UniProt P42685)
[22] = target: T4, LOK (Homo sapiens, UniProt O94804)
T4 construct: gene STK10

SMILES: COc1cc2c(cn1)N(C)C(=O)[C@@H](NC(=O)c1nc3n(n1)[C@H](c1ccccc1)CC3)CC2 [GNE684, (S)-N-((S)-7-methoxy-1-methyl-2-oxo-2,3,4,5-tetrahydro-1H-pyrido[3,4-b]azepin-3-yl)-5-phenyl-6,7-dihydro-5H-pyrrolo[1,2-b][1,2,4]triazole-2-carboxamide]
- remaining binding at 10 µM [1]: 28%
- remaining binding at 10 µM [2]: 100%
- remaining binding at 10 µM [3]: 85%
- remaining binding at 10 µM [4]: 100%
- remaining binding at 10 µM [5]: 78%
- remaining binding at 10 µM [6]: 93%
- remaining binding at 10 µM [7]: 94%
- remaining binding at 10 µM [8]: 100%
- remaining binding at 10 µM [9]: 100%
- remaining binding at 10 µM [10]: 100%
- remaining binding at 10 µM [11]: 100%
- remaining binding at 10 µM [12]: 100%
- remaining binding at 10 µM [13]: 96%
- remaining binding at 10 µM [14]: 87%
- remaining binding at 10 µM [15]: 100%
- remaining binding at 10 µM [16]: 93%
- remaining binding at 10 µM [17]: 88%
- remaining binding at 10 µM [18]: 91%
- remaining binding at 10 µM [19]: 100%
- remaining binding at 10 µM [20]: 92%
- remaining binding at 10 µM [21]: 100%
- remaining binding at 10 µM [22]: 82%
